Assay results published in publication PMC5877509, “Cys Site-Directed Mutagenesis of the Human SLC1A5 (ASCT2) Transporter: Structure/Function Relationships and Crucial Role of Cys467 for Redox Sensing and Glutamine Transport” (International Journal of Molecular Sciences, 2018).
Residue numbers refer to the chain shown, from its start.

Legend:
Assay type in all cases: biochemical
[1] = target: T1, hASCT2 (Homo sapiens, UniProt Q15758); experiment: [3H]Gln transport inhibition in proteoliposomes, dose-response
T1 construct: gene SLC1A5; recombinant hASCT2-His6, purified from P. pastoris, in proteoliposomes
T1 sequence (Q15758 1-541): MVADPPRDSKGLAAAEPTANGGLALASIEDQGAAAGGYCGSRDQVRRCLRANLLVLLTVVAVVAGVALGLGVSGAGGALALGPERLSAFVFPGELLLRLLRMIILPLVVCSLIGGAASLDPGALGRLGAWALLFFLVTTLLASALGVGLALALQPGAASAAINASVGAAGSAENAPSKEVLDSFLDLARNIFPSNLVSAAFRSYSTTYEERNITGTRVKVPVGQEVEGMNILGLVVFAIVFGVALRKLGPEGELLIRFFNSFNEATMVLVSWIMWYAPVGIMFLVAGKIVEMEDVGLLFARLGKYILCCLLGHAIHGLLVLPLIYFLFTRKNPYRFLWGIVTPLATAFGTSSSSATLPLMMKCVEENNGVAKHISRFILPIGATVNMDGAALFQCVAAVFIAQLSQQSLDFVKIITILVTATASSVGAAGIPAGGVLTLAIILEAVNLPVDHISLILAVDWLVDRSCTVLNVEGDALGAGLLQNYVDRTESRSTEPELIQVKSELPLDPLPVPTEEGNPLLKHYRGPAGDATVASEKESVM

[2] = target: T2, hASCT2 (Homo sapiens, UniProt Q15758, C467A); experiment: [3H]Gln transport kinetics (external Km) in proteoliposomes
T2 construct: gene SLC1A5; recombinant hASCT2-His6, purified from P. pastoris, in proteoliposomes
T2 sequence (Q15758 1-541 C467A): T1 sequence (Q15758 1-541) with C467A

[3] = target: T1, hASCT2; experiment: as above
[4] = target: T1, hASCT2; experiment: [3H]Gln transport inhibition in proteoliposomes at […]; conditions: read-out: % inhibition at 1 mM
[5] = target: T1, hASCT2; experiment: as above
[6] = target: T2, hASCT2; experiment: [3H]Gln transport inhibition in proteoliposomes, dose-response

CS(=O)(=O)SCCS(=O)(=O)O [MTSES, Sodium (2-sulfonatoethyl)methane thiosulfonate] gave an IC50 [1] of 129 ± 21 µM.

Work on NC(=O)CC[C@H](N)C(=O)O [Gln] yielded a Km [2] of 202 ± 33 µM and a Km [3] of 35 ± 10 µM.

In the case of CCN1C(=O)C=CC1=O [NEM], the inhibition at 1000 µM [4] is reported as about 50%.

For N[C@@H](CS)C(=O)O [Cys], the “[3H]Gln transport inhibition in proteoliposomes at 1 mM” value [5] was “While Cys strongly inhibited the transport; in this case, inhibition occurred by a mechanism not involving S-S/SH inter-conversion” and the IC50 [6] was 16.6 ± 1.62 µM.
